The values below come from US3930838A, “S-benzyl-N,N-disec-butylthiocarbamate and its use as a rice field herbicide and a rice growth stimulant” (priority 1970, dated 1976).

The subject of one series is grass (Echinocloa spp.). In words: Residual activity, second sowing with grass 24 days after treatment (Example 14). The format is in vivo. Particulars: additional 24 days. How it is done:
(§1) The same method described in Example 9 was followed, the only variation being in sowing Echinocloa spp. (40 slightly pregerminated seeds per box) instead of rice.
After the Echinocloa spp. plants were killed, a second sowing with grass was carried out in the same boxes, 24 days after the treatment, employing 20 slightly pre-germinated seeds per box.

Series [1] can be described thus: Acute oral toxicity, mice. Particulars: mouse, in vivo.
The test system of series [2] is Echinocloa spp. The series is described as follows: Activity on Echinocloa in flooded hothouse boxes, first sowing (Example 14). The class given is in vivo. Conditions: 24 days. How it is done:
A test was arranged in a hothouse on a set of boxes having a 1,000 cm^2 internal surface. 18 Kg. of sieved rice field earth were put into each box. After leveling, the earth surfaces of each of a set of six boxes were uniformly sprayed with hydroacetone solutions containing, respectively, 0, 0.5, 0.75, 1, 1.25, and 1.5% of M3432. […] Each box was flooded with a 10 cm. water layer measured from the earth surface. The sowing was carried out immediately afterwards with a pre-germinated (cv) RIBE rice seed, employing a quantity of 40 seeds per box.
as §1
24 Days after the treatment, the results were observed.

Series [3] relates to Echinocloa spp. In words: Post emergence hothouse test No. 1 (Example 16). The class given is in vivo. Conditions: 4, 6, and 8 kg./ha., 3 days; plants 3-4 cm. at treatment. How it is done: A set of boxes having a 1,000 cm^2 internal surface was prepared in a hothouse according to the method described in Example 9. The boxes were sowed with Echinocloa spp. (70 seeds per box). After saturation of the soil, and as soon as the infesting plants emerged from the soil, the boxes were flooded with a 7 cm. layer of water. When the plants reached a maximum height of 3-4 cm., the treatment was effected by spraying the flooding water surfaces with hydroacetone solutions according to the modalities employed in Example 9. 3 days after the treatment, the following results were observed: […]

Another series concerns rice. The series is described as follows: Stimulating action on rice, general statement. Conditions: in vivo.
For another series, the system named is Barnyard grass. The series is described as follows: Rice seed treatment, 5000 square meter field plots, test No. 3, barnyard grass (Example 17). The class given is in vivo. Particulars: 67 days; for Barnyard grass tiller number: single 1 m^2 testing area. How it is done: A further test was carried out outdoors on loam soil on plots of about 5000 square meters surface.
After flooding each plot, seeds treated as in Test No. […] In all cases, the seen quantity was 150 kg./ha. 67 days after sowing, the results were gathered on 5 representative testing areas of 1 square meter each for each dosage level.

As for `CCC(C)N(C(=O)SCc1ccccc1)C(C)CC` (stereo not drawn) [M3432, S-benzyl-N,N-disec.butylthiocarbamate], the Shoot with grass (Echinocloa spp.) (2 kg./ha.) is listed as 26.5 cm; in the series with grass (Echinocloa spp.) (4 kg./ha.) it was 27.0 cm; with grass (Echinocloa spp.) (6 kg./ha.), 0 cm; with grass (Echinocloa spp.) (8 kg./ha.), 0 cm; in the series on Echinocloa spp. [2] (2 kg./ha.) it was 8.5 cm; in the series on Echinocloa spp. [2] (4 kg./ha.) it was 0 cm. In addition, the Shoot in the series with Echinocloa spp. [2] (6 kg./ha.), with Echinocloa spp. [2] (8 kg./ha.) and with Echinocloa spp. [3] was 0 cm each time. Also, the Stand with grass (Echinocloa spp.) (2 kg./ha.) stood at 100%; in the series on grass (Echinocloa spp.) (4 kg./ha.), 65%; with grass (Echinocloa spp.) (6 kg./ha.) it was 0%; in the series on grass (Echinocloa spp.) (8 kg./ha.), 0%; in the series on Echinocloa spp. [2] (2 kg./ha.) it was 2.5%; with Echinocloa spp. [2] (4 kg./ha.), 0%. Also, the Stand in the series with Echinocloa spp. [2] (6 kg./ha.), with Echinocloa spp. [2] (8 kg./ha.) and in the series with Echinocloa spp. [3] was 0% each time. The same compound registered an LD50 in series [1] of 8000 mg/kg. Moreover, the Malformations of rice entry in the series on rice is listed as “no malformations are noticed”. The “Barnyard grass tiller number” value in the series with Barnyard grass (3.4 kg./ha.) and with Barnyard grass (4.0 kg./ha.) was 0 (no.)/m^2 throughout. Moreover, the “Barnyard grass tiller number, average on 5 testing areas” value with Barnyard grass (3.6 kg./ha.) and in the series with Barnyard grass (4.0 kg./ha.) was 0 (no.)/m^2 throughout.

The LD50 is the dose at which mortality reaches 50%. A high value points to lower toxicity.
